Key:
[1] = system: murine mammary carcinoma 4T1 cells; experiment: Photosensitizer-mediated PDT, in vitro proliferation (MTT), 4T1; type: cell-based
Method: (§1) Several kinds of tumor cells (human cervical cancer Hela cells, human hepatocellular carcinoma huh-7 cells and murine mammary carcinoma 4T1 cells) cultured in vitro from a variety of tissues were taken as cell models, so as to investigate the photodynamic effects mediated by different doses of CEFN, CEFO, Ce6 and HPPH on the three different tumor cells (n=3). The specific experimental procedures were carried out as follows.
(§2) Cells in the logarithmic growth phase were harvested and seeded in a 24-well plate. After growing to a confluence of 70-80%, the cells were randomly divided into a control group (free of drug and light irradiation), a drug group and a photodynamic group. The CEFN, CEFO, Ce6 and HPPH were added respectively in dark, and for each drug, four final concentrations 1, 2, 5, and 10 μg/mL were set with 3 replicates for each group. After the co-incubation, the groups were treated individually. Regarding the photodynamic group, the light irradiation was performed at a wavelength of 660 nm and three different light intensities, i.e., 2, 4 and 8 J/cm^2. After that, each group was digested, and were inoculated into a 96-well plate at 100 μL per well with 4 replicates for each treatment. 24 hours later, the 96-well plate was subjected to MTT assay as follows. Each well was added with 20 μL of MTT (3-4,5-dimethylthiazol-2,5-diphenyltetrazolium bromide) solution in the dark and incubated for 4 hours. The supernatant was discarded, and the residue was dissolved with 150 μL of dimethyl sulfoxide for 15 min. After that, the 96-well plate was measured by a microplate reader for the absorbance (OD value). The relative cell viability was calculated as follows: relative cell viability=OD value of experimental group/OD value of control group*100%.
In this experiment, photodynamic effect mediated by the compounds (except CEFO and CEFN) in different Examples of this disclosure on the murine mammary carcinoma 4T1 cells was investigated. The experimental procedures are carried out as follows. Cells in the logarithmic growth phase were harvested and seeded in a 24-well plate. After growing to a confluence of 70-80%, the cells were randomly divided into multiple photodynamic groups and multiple no-light control groups. The compounds (as shown in Table 8a) with a final concentration of 10 μg/mL were added to each group respectively in dark with 3 replicates for each group, so as to co-incubate the cells with the drug. Regarding the multiple photodynamic groups, the light irradiation was performed at a wavelength of 660 nm and the light intensity of 8 J/cm^2. After that, each group was digested, and were inoculated into a 96-well plate at 100 μL per well with 4 replicates for light treatment and no light treatment. 24 hours later, the 96-well plate was measured by MTT assay as follows. Each well was added with 20 μL of MTT (3-4,5-dimethylthiazol-2,5-diphenyltetrazolium bromide) solution in the dark and incubated for 4 hours. The supernatant was discarded, and the residue was dissolved with 150 μL of dimethyl sulfoxide for 15 min. After that, the 96-well plate was measured by a microplate reader for the absorbance (OD value). The relative cell viability of the murine mammary carcinoma 4T1 cells was calculated as follows according to the measured absorbance (OD value) in each group: relative cell viability=OD value of experimental group/OD value of control group*100%.

[2] = system: murine mammary carcinoma 4T1 cells; experiment: Antitumor activity as photosensitizers on tumor-bearing mice (one PDT treatment); type: in vivo; details: for Inhibitory rate (average ± SD, %) / Tumor weight (average ± SD, g): 660 nm, 75 Joule/cm^2 6 h after dosing, 7 days after PDT; for Body weight At the begining / Body weight At the end: one PDT treatment, mice, in g (unit assumed)
Method: (§3) The murine mammary carcinoma cells (4T1 line) were subjected to adherent culture. After growing to a confluence of 70%-80%, the cells in the culture flask were routinely digested, centrifuged and counted, and then resuspended with 0.85% normal saline to a density of 1×10^7 cells/mL. The cell suspension was injected into the left lateral middle axillary subcutaneous part of […] Bal b/c healthy mice (female, aged 6-8 weeks) at 0.1 mL/mouse. When the tumor diameter, which was observed every other day, reached 0.6-0.8 cm, the mice with well-growing tumors and no ulcers on the epidermis were selected for grouped treatment.
(1) Mice with similar body weight and uniform tumor size are selected and randomly divided into 7 groups with 6 mice for each group. After inoculation for 48 h, the mice were subjected to drug administration separately from the tail vein by group.
6 h after the drug administration, the mice were fixed to expose the tumor growth site. Light irradiation was performed for 8 min, using PDT-660 photodynamic therapy equipment at a laser wavelength of 660 nm and a light dose of 75 Joule/cm^2. Then both of the mice growth and tumor growth are observed continuously. 7 days after photodynamic therapy, the animals were sacrificed. The tumor was stripped and weighed, and the body weight was recorded.

[3] = system: murine mammary carcinoma 4T1 cells; experiment: Antitumor activity as sonosensitizers (SDT) on tumor-bearing mice; type: in vivo; details: for Inhibitory rate (average ± SD, %) / Tumor weight (average ± SD, g): SDT 1.0 MHz, 3.0 W/cm^2, 3 min, 6 h after dosing, 7 days after SDT; for Body weight At the beginning / Body weight At the end: SDT, mice, in g (unit assumed)
Method: as §3
Mice with similar body weight and uniform tumor size are selected and randomly divided into 6 groups with 6 mice for each group. 48 h after inoculation, the mice were subjected to drug administration separately from the tail vein by group.
[…] 6 h after drug administration, each group of mice was anesthetized by intraperitoneal injection with 0.2 mL of 1% pentobarbital sodium. Then the mice were fixed to allow the tumor growth site exposed. The SDT group was treated using an ultrasonic therapeutic apparatus at an impulse waveform of 1.0 MHz and power of 3.0 W/cm^2 for 3 min. 7 days after SDT, the animals were sacrificed. The tumor was stripped and weighed, and the body weight was recorded.

[4] = system: human cervical cancer Hela cells; experiment: Photosensitizer-mediated PDT, in vitro proliferation (MTT), Hela; type: cell-based; details: for cell viability (%): Hela; for toxicity to the cells when the drug is used alone without photodynamic treatment: summary statement for Hela, huh-7 and 4T1 cells
Method: as §1, §2

## 3-n-hexylaminomethyl-3-devinyl-chlorin e4 disodium salt [CEFN]
[1]; 1 μg/mL, 660 nm, 2 J/cm^2
  cell viability (%): 97 ± 2%
[1]; 1 μg/mL, 660 nm, 4 J/cm^2
  cell viability (%): 89 ± 3%
[1]; 1 μg/mL, 660 nm, 8 J/cm^2
  cell viability (%): 81 ± 3%
[1]; 1 μg/mL, no light
  cell viability (%): 97 ± 3%
[1]; 2 μg/mL, 660 nm, 2 J/cm^2
  cell viability (%): 79 ± 3%
[1]; 2 μg/mL, 660 nm, 4 J/cm^2
  cell viability (%): 52 ± 2%
[1]; 2 μg/mL, 660 nm, 8 J/cm^2
  cell viability (%): 39 ± 2%
[1]; 5 μg/mL, 660 nm, 2 J/cm^2
  cell viability (%): 59 ± 2%
[1]; 5 μg/mL, 660 nm, 4 J/cm^2
  cell viability (%): 24 ± 3%
[1]; 5 μg/mL, 660 nm, 8 J/cm^2
  cell viability (%): 18 ± 1%
[1]; 5 μg/mL, no light
  cell viability (%): 98 ± 2%
[1]; 10 μg/mL, 660 nm, 2 J/cm^2
  cell viability (%): 38 ± 3%
[1]; 10 μg/mL, 660 nm, 4 J/cm^2
  cell viability (%): 10 ± 2%
[1]; 10 μg/mL, 660 nm, 8 J/cm^2
  cell viability (%): 8 ± 3%
[1]; 10 μg/mL, no light
  cell viability (%): 101 ± 3%
[2]; 0.2 mg/kg tail vein
  Inhibitory rate (average ± SD, %): 68.5 ± 1.7%
  Tumor weight (average ± SD, g): 0.051 ± 0.003 g
[2]; 0.2 mg/kg
  Body weight At the begining: 20.6 ± 0.6
  Body weight At the end: 21.7 ± 0.5
[2]; 0.4 mg/kg tail vein
  Inhibitory rate (average ± SD, %): 82.7 ± 3.7%
  Tumor weight (average ± SD, g): 0.028 ± 0.006 g
[2]; 0.4 mg/kg
  Body weight At the begining: 20.5 ± 0.4
  Body weight At the end: 21.6 ± 0.5
[3]; 2.5 mg/kg tail vein
  Inhibitory rate (average ± SD, %): 42.1 ± 4.2%
  Tumor weight (average ± SD, g): 0.099 ± 0.007 g
[3]; 2.5 mg/kg
  Body weight At the beginning: 20.5 ± 0.3
  Body weight At the end: 21.6 ± 0.2
[3]; 5 mg/kg tail vein
  Inhibitory rate (average ± SD, %): 66.7 ± 3.0%
  Tumor weight (average ± SD, g): 0.057 ± 0.005 g
[3]; 5 mg/kg
  Body weight At the beginning: 20.3 ± 0.2
  Body weight At the end: 21.3 ± 0.3
[4]; 1 μg/mL, 660 nm, 2 J/cm^2
  cell viability (%): 98 ± 3%
[4]; 1 μg/mL, 660 nm, 4 J/cm^2
  cell viability (%): 99 ± 1%
[4]; 1 μg/mL, 660 nm, 8 J/cm^2
  cell viability (%): 78 ± 3%
[4]; 1 μg/mL, no light
  cell viability (%): 103 ± 2%
[4]; 2 μg/mL, 660 nm, 2 J/cm^2
  cell viability (%): 78 ± 3%
[4]; 2 μg/mL, 660 nm, 4 J/cm^2
  cell viability (%): 62 ± 2%
[4]; 2 μg/mL, 660 nm, 8 J/cm^2
  cell viability (%): 51 ± 3%
[4]; 2 μg/mL, no light
  cell viability (%): 99 ± 2%
[4]; 5 μg/mL, 660 nm, 2 J/cm^2
  cell viability (%): 43 ± 3%
[4]; 5 μg/mL, 660 nm, 4 J/cm^2
  cell viability (%): 32 ± 4%
[4]; 5 μg/mL, 660 nm, 8 J/cm^2
  cell viability (%): 21 ± 3%
[4]; 5 μg/mL, no light
  cell viability (%): 106 ± 2%
[4]; 10 μg/mL, 660 nm, 2 J/cm^2
  cell viability (%): 36 ± 3%
[4]; 10 μg/mL, 660 nm, 4 J/cm^2
  cell viability (%): 17 ± 2%
[4]; 10 μg/mL, no light
  cell viability (%): 104 ± 2%
[4]; no light
  toxicity to the cells when the drug is used alone without photodynamic treatment: will not lower the cell viability

## 3-hexoxymethyl-3-devinyl-chlorin e4 disodium salt [CEFO]
[1]; 1 μg/mL, 660 nm, 2 J/cm^2
  cell viability (%): 86 ± 3%
[1]; 1 μg/mL, 660 nm, 4 J/cm^2
  cell viability (%): 84 ± 4%
[1]; 1 μg/mL, 660 nm, 8 J/cm^2
  cell viability (%): 78 ± 3%
[1]; 1 μg/mL, no light
  cell viability (%): 103 ± 2%
[1]; 2 μg/mL, 660 nm, 2 J/cm^2
  cell viability (%): 67 ± 3%
[1]; 2 μg/mL, 660 nm, 4 J/cm^2
  cell viability (%): 41 ± 3%
[1]; 2 μg/mL, 660 nm, 8 J/cm^2
  cell viability (%): 39 ± 2%
[1]; 2 μg/mL, no light
  cell viability (%): 103 ± 2%
[1]; 5 μg/mL, 660 nm, 2 J/cm^2
  cell viability (%): 38 ± 2%
[1]; 5 μg/mL, 660 nm, 4 J/cm^2
  cell viability (%): 21 ± 2%
[1]; 5 μg/mL, 660 nm, 8 J/cm^2
  cell viability (%): 19 ± 42%
[1]; 5 μg/mL, no light
  cell viability (%): 99 ± 2%
[1]; 10 μg/mL, 660 nm, 2 J/cm^2
  cell viability (%): 29 ± 1%
[1]; 10 μg/mL, 660 nm, 4 J/cm^2
  cell viability (%): 5 ± 1%
[1]; 10 μg/mL, 660 nm, 8 J/cm^2
  cell viability (%): 3 ± 1%
[1]; 10 μg/mL, no light
  cell viability (%): 100 ± 3%
[2]; 0.2 mg/kg tail vein
  Inhibitory rate (average ± SD, %): 87.0 ± 3.1%
  Tumor weight (average ± SD, g): 0.021 ± 0.005 g
[2]; 0.2 mg/kg
  Body weight At the begining: 20.4 ± 0.3
  Body weight At the end: 21.5 ± 0.3
[2]; 0.4 mg/kg tail vein
  Inhibitory rate (average ± SD, %): 97.5 ± 0.4%
  Tumor weight (average ± SD, g): 0.004 ± 0.001 g
[2]; 0.4 mg/kg
  Body weight At the begining: 20.7 ± 0.4
  Body weight At the end: 21.8 ± 0.4
[3]; 2.5 mg/kg tail vein
  Inhibitory rate (average ± SD, %): 64.3 ± 4.3%
  Tumor weight (average ± SD, g): 0.061 ± 0.007 g
[3]; 2.5 mg/kg
  Body weight At the beginning: 20.4 ± 0.3
  Body weight At the end: 21.4 ± 0.3
[3]; 5 mg/kg tail vein
  Inhibitory rate (average ± SD, %): 84.2 ± 2.9%
  Tumor weight (average ± SD, g): 0.027 ± 0.004 g
[3]; 5 mg/kg
  Body weight At the beginning: 20.2 ± 0.2
  Body weight At the end: 21.3 ± 0.2
[4]; 1 μg/mL, 660 nm, 2 J/cm^2
  cell viability (%): 65 ± 3%
[4]; 1 μg/mL, 660 nm, 4 J/cm^2
  cell viability (%): 61 ± 3%
[4]; 1 μg/mL, 660 nm, 8 J/cm^2
  cell viability (%): 40 ± 2%
[4]; 1 μg/mL, no light
  cell viability (%): 101 ± 2%
[4]; 2 μg/mL, 660 nm, 2 J/cm^2
  cell viability (%): 54 ± 3%
[4]; 2 μg/mL, 660 nm, 4 J/cm^2
  cell viability (%): 45 ± 2%
[4]; 2 μg/mL, 660 nm, 8 J/cm^2
  cell viability (%): 25 ± 2%
[4]; 2 μg/mL, no light
  cell viability (%): 107 ± 2%
[4]; 5 μg/mL, 660 nm, 2 J/cm^2
  cell viability (%): 38 ± 2%
[4]; 5 μg/mL, 660 nm, 4 J/cm^2
  cell viability (%): 24 ± 3%
[4]; 5 μg/mL, 660 nm, 8 J/cm^2
  cell viability (%): 14 ± 4%
[4]; 5 μg/mL, no light
  cell viability (%): 109 ± 2%
[4]; 10 μg/mL, 660 nm, 2 J/cm^2
  cell viability (%): 25 ± 2%
[4]; 10 μg/mL, 660 nm, 4 J/cm^2
  cell viability (%): 4 ± 1%
[4]; 10 μg/mL, 660 nm, 8 J/cm^2
  cell viability (%): 3 ± 2%
[4]; 10 μg/mL, no light
  cell viability (%): 107 ± 2%
[4]; no light
  toxicity to the cells when the drug is used alone without photodynamic treatment: will not lower the cell viability
